The results in this text go back to paper PMC6198068, “Discovery of a Novel Nav1.7 Inhibitor From Cyriopagopus albostriatus Venom With Potent Analgesic Efficacy” (Frontiers in Pharmacology, 2018).

The target of one experiment is T1, Nav1.6 (Homo sapiens, UniProt Q9UQD0).
T1 construct: expressed in transfected cells; host or cells: HEK293T
The experiment can be described thus: Whole-cell patch-clamp, Nav1.6 in HEK293T cells. The experiment is classed as cell-based. As to conditions: mean ± SEM. The text has this: (§1) The cDNA genes encoding rat Nav1.4 and human Nav1.7 were subcloned into vectors pRGB4 and pcDNA3.1-mod, respectively. Mutations of rNav1.4 (N655D, Q657E, and N655D/Q657E) and hNav1.7 (D816N, E818Q, and D816N/E818Q) were constructed using the Gene Tailor Site-Directed Mutagenesis system (Invitrogen, Carlsbad, CA, United States), according to the manufacturer’s instructions. Nav1.2–Nav1.7 and mutant plasmids together with eGFP were transiently transfected into HEK293T cells while Nav1.8 together with eGFP was transiently transfected into ND7/23 cells by Lipofectamine 2000 (Invitrogen, Carlsbad, CA, United States). Additionally, plasmids β1- and β2-eGFP encoding the human β1 and β2 subunits, respectively, were co-transfected with those encoding WT Nav1.7 and Nav1.7 mutations in HEK293T cells. […] Cells with green fluorescent protein fluorescence were selected for whole-cell patch-clamp recordings 24 h after transfection.
(§2) Whole-cell patch-clamp recordings were performed at room temperature (20–25°C) using an EPC 10 USB Patch Clamp Amplifier (HEKA, Elektronik, Lambrecht, Germany). […] Data was analyzed by software Igo Pro 6.10A (WaveMetrics, Lake Oswego, OR, United States), SigmaPlot 10.0 (Sigma-Aldrich, St. Louis, MO, United States), OriginPro 8 (OriginLab Corp., Northampton, MA, United States), and GraphPad Prism 5 (GraphPad Software, San Diego, CA, United States). […]

The target in the next experiment is T2, Nav1.7 (Homo sapiens, UniProt Q15858).
T2 construct: expressed in transfected cells; host or cells: HEK293T
T2 sequence (O60939 30-215): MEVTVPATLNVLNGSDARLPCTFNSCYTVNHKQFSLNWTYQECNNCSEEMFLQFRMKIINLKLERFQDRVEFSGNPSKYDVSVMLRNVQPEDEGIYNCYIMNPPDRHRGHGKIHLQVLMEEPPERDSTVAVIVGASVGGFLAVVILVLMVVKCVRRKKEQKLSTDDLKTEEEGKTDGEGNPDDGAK
T2 sequence (Q15858 other isoform, or with tags, fused parts or gaps): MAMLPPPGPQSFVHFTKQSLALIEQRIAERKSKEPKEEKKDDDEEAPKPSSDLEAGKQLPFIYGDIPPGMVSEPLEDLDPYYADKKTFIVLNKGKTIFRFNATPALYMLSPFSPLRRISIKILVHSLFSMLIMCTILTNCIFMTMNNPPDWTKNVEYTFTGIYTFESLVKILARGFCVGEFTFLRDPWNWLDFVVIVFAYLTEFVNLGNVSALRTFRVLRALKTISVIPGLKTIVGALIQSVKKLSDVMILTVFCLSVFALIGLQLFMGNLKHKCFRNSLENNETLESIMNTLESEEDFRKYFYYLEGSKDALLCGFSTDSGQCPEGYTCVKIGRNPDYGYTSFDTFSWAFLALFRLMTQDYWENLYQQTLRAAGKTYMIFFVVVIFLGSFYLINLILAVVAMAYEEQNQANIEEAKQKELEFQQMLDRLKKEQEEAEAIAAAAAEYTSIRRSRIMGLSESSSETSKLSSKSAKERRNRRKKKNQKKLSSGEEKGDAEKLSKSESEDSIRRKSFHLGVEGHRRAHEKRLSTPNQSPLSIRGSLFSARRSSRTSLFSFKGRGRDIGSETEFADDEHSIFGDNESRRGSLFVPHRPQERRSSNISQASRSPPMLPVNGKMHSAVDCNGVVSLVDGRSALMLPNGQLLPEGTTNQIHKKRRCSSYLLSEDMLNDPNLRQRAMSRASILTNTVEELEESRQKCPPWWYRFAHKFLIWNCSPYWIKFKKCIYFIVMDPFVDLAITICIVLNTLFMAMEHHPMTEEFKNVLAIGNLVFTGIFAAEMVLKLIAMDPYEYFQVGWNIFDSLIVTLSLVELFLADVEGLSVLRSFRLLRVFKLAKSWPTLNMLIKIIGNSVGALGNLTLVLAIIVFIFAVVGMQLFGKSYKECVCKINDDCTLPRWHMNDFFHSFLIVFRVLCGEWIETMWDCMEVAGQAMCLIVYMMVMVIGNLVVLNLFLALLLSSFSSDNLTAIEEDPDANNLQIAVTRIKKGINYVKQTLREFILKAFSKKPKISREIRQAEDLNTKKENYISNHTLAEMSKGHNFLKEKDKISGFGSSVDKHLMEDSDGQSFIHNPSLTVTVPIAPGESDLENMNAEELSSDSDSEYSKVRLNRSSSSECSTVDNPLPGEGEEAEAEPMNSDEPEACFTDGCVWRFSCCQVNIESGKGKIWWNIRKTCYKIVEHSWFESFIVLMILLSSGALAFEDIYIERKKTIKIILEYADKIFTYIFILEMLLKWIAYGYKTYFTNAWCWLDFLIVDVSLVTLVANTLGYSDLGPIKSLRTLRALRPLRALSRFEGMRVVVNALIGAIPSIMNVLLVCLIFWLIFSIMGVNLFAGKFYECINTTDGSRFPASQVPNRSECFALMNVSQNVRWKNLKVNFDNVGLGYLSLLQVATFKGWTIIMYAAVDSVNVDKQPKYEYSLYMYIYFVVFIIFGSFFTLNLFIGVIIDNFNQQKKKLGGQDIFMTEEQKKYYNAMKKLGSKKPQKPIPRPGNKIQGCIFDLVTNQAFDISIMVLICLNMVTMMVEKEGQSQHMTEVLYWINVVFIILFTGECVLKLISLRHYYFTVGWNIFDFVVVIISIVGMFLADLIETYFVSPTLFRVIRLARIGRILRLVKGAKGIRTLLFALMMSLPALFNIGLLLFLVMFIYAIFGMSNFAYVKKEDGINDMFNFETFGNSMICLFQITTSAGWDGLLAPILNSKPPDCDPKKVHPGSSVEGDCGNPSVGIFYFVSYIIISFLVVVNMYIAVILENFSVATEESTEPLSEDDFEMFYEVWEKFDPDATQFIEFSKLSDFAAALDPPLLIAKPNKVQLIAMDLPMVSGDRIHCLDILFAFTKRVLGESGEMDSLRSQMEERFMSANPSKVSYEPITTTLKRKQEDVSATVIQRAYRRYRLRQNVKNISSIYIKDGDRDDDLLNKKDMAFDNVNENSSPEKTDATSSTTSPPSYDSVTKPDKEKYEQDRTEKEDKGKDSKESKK
T2 sequence (Q07699 19-218, further chain): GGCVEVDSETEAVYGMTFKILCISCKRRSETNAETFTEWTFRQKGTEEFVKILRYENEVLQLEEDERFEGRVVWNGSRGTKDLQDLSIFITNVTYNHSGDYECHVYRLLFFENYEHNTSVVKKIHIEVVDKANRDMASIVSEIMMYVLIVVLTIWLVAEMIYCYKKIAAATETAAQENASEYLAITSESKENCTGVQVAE
The experiment can be described thus: Rate of toxin dissociation from Nav1.7 at depolarizing pulses. The class given is cell-based. As to conditions: 1 μM, mean ± SEM, n = 6–11 cells.
Text: as §1, with “cells. Human Nav1.9 was transfected into ND7/23 cells according to a previous report ([Zhou et al., 2017]).” for “cells.”
as §2
Fast inactivation time constants were calculated by fitting current decay traces with a single exponential function using the I–V protocol described above. Recovery from fast-inactivation (repriming) was assessed by using a two-pulse protocol consisting of a depolarizing pulse to −10 mV for 50 ms to inactivate channels, followed by a step to −100 mV of variable duration (1 to 1024 ms) to promote recovery, and 50 ms test pulse to −10 mV to assess availability of channels. […]

Where a SMILES comes first, the peptide text is derived from it. Bridges are numbered along the chain shown (N, C = ends).

T1 sequence (Q9UQD0 whole entry): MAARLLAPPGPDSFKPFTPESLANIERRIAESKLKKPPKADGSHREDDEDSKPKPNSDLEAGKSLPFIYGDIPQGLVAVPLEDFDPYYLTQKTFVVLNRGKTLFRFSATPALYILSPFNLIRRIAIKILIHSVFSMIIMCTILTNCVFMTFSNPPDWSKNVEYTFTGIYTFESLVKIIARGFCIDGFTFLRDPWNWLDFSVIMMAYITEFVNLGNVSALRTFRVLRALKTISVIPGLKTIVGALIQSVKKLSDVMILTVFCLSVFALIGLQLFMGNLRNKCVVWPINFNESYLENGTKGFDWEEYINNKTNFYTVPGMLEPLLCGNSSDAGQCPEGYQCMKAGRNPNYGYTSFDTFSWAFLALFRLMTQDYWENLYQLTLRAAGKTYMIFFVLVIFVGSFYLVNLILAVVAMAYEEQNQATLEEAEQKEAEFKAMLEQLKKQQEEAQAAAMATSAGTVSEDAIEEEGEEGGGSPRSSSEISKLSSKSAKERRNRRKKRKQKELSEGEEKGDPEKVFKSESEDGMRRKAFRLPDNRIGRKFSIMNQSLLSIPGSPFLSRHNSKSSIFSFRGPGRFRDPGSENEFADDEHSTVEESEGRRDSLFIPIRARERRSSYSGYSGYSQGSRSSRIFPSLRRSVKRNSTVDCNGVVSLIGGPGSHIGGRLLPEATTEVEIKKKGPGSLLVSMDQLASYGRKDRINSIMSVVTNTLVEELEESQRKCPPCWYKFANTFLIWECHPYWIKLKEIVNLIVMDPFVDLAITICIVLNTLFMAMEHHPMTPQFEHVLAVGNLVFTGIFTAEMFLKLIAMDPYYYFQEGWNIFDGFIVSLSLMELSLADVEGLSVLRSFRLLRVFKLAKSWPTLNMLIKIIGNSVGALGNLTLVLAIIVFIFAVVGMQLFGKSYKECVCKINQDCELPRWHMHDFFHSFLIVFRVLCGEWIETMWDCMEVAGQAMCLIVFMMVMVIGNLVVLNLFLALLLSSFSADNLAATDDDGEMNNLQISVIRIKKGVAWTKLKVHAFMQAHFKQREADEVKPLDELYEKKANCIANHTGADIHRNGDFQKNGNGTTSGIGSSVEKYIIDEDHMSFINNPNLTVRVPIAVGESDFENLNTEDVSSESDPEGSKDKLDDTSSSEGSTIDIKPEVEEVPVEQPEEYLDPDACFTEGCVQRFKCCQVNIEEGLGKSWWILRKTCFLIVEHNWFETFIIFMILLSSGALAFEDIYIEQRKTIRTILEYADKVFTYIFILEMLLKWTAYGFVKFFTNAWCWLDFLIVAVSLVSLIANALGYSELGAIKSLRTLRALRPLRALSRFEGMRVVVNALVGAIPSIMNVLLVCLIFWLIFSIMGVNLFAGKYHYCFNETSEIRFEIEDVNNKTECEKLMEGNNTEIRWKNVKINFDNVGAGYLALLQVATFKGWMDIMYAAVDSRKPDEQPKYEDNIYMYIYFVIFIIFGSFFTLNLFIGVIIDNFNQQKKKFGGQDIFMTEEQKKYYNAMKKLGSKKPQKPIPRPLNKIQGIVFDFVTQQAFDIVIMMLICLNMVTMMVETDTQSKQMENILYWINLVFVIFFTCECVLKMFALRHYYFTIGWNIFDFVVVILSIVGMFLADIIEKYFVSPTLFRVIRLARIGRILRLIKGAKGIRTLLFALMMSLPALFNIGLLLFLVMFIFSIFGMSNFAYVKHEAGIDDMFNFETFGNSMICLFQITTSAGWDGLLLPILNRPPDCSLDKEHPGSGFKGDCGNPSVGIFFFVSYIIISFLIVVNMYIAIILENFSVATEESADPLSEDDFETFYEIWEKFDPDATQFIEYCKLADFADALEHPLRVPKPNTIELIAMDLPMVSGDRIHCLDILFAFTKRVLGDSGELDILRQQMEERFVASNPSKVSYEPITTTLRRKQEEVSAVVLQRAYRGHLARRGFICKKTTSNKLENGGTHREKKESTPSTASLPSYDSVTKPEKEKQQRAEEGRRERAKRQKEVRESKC

Consider `CC(C)C[C@H](NC(=O)[C@H](CC(=O)O)NC(=O)[C@H](Cc1ccc(O)cc1)NC(=O)[C@H](CCCCN)NC(=O)[C@@H]1CSSC[C@@H]2NC(=O)[C@H](CCCCN)NC(=O)[C@H](CC(=O)O)NC(=O)[C@H](CC(N)=O)NC(=O)[C@H](CO)NC(=O)[C@@H]3CCCN3C(=O)[C@H](CC(N)=O)NC(=O)[C@@H]3CSSC[C@H](NC(=O)[C@H](C(C)C)NC(=O)[C@H](CC(C)C)NC(=O)[C@H](CO)NC(=O)[C@H](CO)NC(=O)[C@H](CO)NC(=O)[C@H](CCCCN)NC(=O)[C@H](CSSC[C@H](NC(=O)[C@H](C)N)C(=O)N[C@@H](CC(C)C)C(=O)NCC(=O)N[C@@H](Cc4ccccc4)C(=O)NCC(=O)N[C@@H](CCC(=O)O)C(=O)N[C@@H](CCCCN)C(=O)N3)NC2=O)C(=O)N[C@@H](CO)C(=O)N[C@@H](CCC(N)=O)C(=O)N[C@@H](CCCCN)C(=O)N[C@@H](Cc2c[nH]cn2)C(=O)N[C@@H](CCCCN)C(=O)N[C@@H](Cc2c[nH]c3ccccc23)C(=O)N1)C(=O)O` [Ca2a] (H-ACLGFGEKCNPSNDKCCKSSSLVCSQKHKWCKYDL-OH; disulfide 2-17, 9-24, 16-31 (inferred); N-terminus and C-terminus assumed), for which the “decrease of Nav1.6 current amplitude” value on Nav1.6 (1 μM, 50 ms to −10 mV from −100 mV) turned out to be 78.7 ± 2.9%. Moreover, at Nav1.6 (whole-cell patch-clamp, n = 4–7 cells per data point), the half-maximal inhibitory concentration (IC50) (commonly the midpoint of a concentration-inhibition curve) amounted to 314 ± 6.3 nM. Besides, the “dissociation time constant from Nav1.7” value on Nav1.7 (at 60 mV) is 547.2 ± 24.3 ms; on Nav1.7 (at 80 mV), 347.9 ± 29.2 ms; at Nav1.7 (at 100 mV) it was 169.8 ± 25.6 ms.
